Results as given in ChEMBL document CHEMBL1154057, “Synthesis and antibacterial activity of novel 15-membered macrolide derivatives: 4''-carbamate, 11,12-cyclic carbonate-4''-carbamate and 11,4''-di-O-arylcarbamoyl analogs of azithromycin” (2009).
In brackets after ≈: the same amount, converted by molar mass.

Assays:
Streptococcus pneumoniae [1] = assay: Antibacterial activity against erythromycin-resistant Streptococcus pneumoniae B1 encoded by erm gene
Streptococcus pneumoniae [2] = assay: Antibacterial activity against erythromycin-resistant Streptococcus pneumoniae A22072 encoded by mef gene
Streptococcus pneumoniae [3] = assay: Antibacterial activity against erythromycin-susceptible Streptococcus pneumoniae ATCC 49619
Streptococcus pneumoniae [4] = assay: Antibacterial activity against erythromycin-resistant Streptococcus pneumoniae AB11 encoded by erm and mef gene

SMILES	MIC (Streptococcus pneumoniae [1]) [µg/mL]	MIC (Streptococcus pneumoniae [2]) [µg/mL]	MIC (Streptococcus pneumoniae [3]) [µg/mL]	MIC (Streptococcus pneumoniae [4]) [µg/mL]
CCCCNC(=O)O[C@H]1[C@H](C)O[C@@H](O[C@H]2[C@H](C)[C@@H](O[C@@H]3O[C@H](C)C[C@H](N(C)C)[C@H]3O)[C@@](C)(O)C[C@@H](C)CN(C)[C@H](C)[C@@H](O)[C@](C)(O)[C@@H](CC)OC(=O)[C@@H]2C)C[C@@]1(C)OC	8 (≈ 9.43 µM)	1 (≈ 1.18 µM)	< 0.03	128 (≈ 151 µM)
CC[C@H]1OC(=O)[C@H](C)[C@@H](O[C@H]2C[C@@](C)(OC)[C@@H](OC(=O)NCc3ccc(OC)cc3)[C@H](C)O2)[C@H](C)[C@@H](O[C@@H]2O[C@H](C)C[C@H](N(C)C)[C@H]2O)[C@@](C)(O)C[C@@H](C)CN(C)[C@H](C)[C@@H](O)[C@]1(C)O	64 (≈ 70.2 µM)	4 (≈ 4.39 µM)	0.12 (≈ 0.132 µM)	32 (≈ 35.1 µM)
CC[C@H]1OC(=O)[C@H](C)[C@@H](O[C@H]2C[C@@](C)(OC)[C@@H](OC(=O)NCCc3ccc4c(c3)OCO4)[C@H](C)O2)[C@H](C)[C@@H](O[C@@H]2O[C@H](C)C[C@H](N(C)C)[C@H]2O)[C@@](C)(O)C[C@@H](C)CN(C)[C@H](C)[C@@H](O)[C@]1(C)O	8 (≈ 8.51 µM)	0.5 (≈ 0.532 µM)	< 0.03	8 (≈ 8.51 µM)
CC[C@H]1OC(=O)[C@H](C)[C@@H](O[C@H]2C[C@@](C)(OC)[C@@H](OC(=O)NCc3ccc(OC)cc3)[C@H](C)O2)[C@H](C)[C@@H](O[C@@H]2O[C@H](C)C[C@H](N(C)C)[C@H]2O)[C@@](C)(O)C[C@@H](C)CN(C)[C@H](C)[C@H]2OC(=O)O[C@@]21C	8 (≈ 8.53 µM)	0.25 (≈ 0.266 µM)	< 0.03	16 (≈ 17.1 µM)
CCCCNC(=O)O[C@H]1[C@H](C)O[C@@H](O[C@H]2[C@H](C)[C@@H](O[C@@H]3O[C@H](C)C[C@H](N(C)C)[C@H]3O)[C@@](C)(O)C[C@@H](C)CN(C)[C@H](C)[C@H]3OC(=O)O[C@]3(C)[C@@H](CC)OC(=O)[C@@H]2C)C[C@@]1(C)OC	8 (≈ 9.15 µM)	1 (≈ 1.14 µM)	0.12 (≈ 0.137 µM)	16 (≈ 18.3 µM)
CCCCNC(=O)O[C@@H]1[C@@H](C)N(C)C[C@H](C)C[C@](C)(O)[C@H](O[C@@H]2O[C@H](C)C[C@H](N(C)C)[C@H]2O)[C@@H](C)[C@H](O[C@H]2C[C@@](C)(OC)[C@@H](OC(=O)NCc3ccc(OC)cc3)[C@H](C)O2)[C@@H](C)C(=O)O[C@H](CC)[C@@]1(C)O	0.5 (≈ 0.494 µM)	1 (≈ 0.989 µM)	0.06 (≈ 0.0593 µM)	128 (≈ 127 µM)
CC[C@H]1OC(=O)[C@H](C)[C@@H](O[C@H]2C[C@@](C)(OC)[C@@H](OC(=O)NCCc3ccccc3Cl)[C@H](C)O2)[C@H](C)[C@@H](O[C@@H]2O[C@H](C)C[C@H](N(C)C)[C@H]2O)[C@@](C)(O)C[C@@H](C)CN(C)[C@H](C)[C@@H](OC(=O)NCCc2ccc(O)cc2)[C@]1(C)O	0.25 (≈ 0.229 µM)	0.06 (≈ 0.0549 µM)	< 0.03	16 (≈ 14.6 µM)
CC[C@H]1OC(=O)[C@H](C)[C@@H](O[C@H]2C[C@@](C)(OC)[C@@H](OC(=O)NCCc3ccccc3Cl)[C@H](C)O2)[C@H](C)[C@@H](O[C@@H]2O[C@H](C)C[C@H](N(C)C)[C@H]2O)[C@@](C)(O)C[C@@H](C)CN(C)[C@H](C)[C@@H](OC(=O)NCc2ccc(F)cc2)[C@]1(C)O	0.25 (≈ 0.231 µM)	0.25 (≈ 0.231 µM)	0.06 (≈ 0.0555 µM)	4 (≈ 3.7 µM)
CC[C@H]1OC(=O)[C@H](C)[C@@H](O[C@H]2C[C@@](C)(OC)[C@@H](OC(=O)NCc3ccccc3)[C@H](C)O2)[C@H](C)[C@@H](O[C@@H]2O[C@H](C)C[C@H](N(C)C)[C@H]2O)[C@@](C)(O)C[C@@H](C)CN(C)[C@H](C)[C@H]2OC(=O)O[C@@]21C	8 (≈ 8.81 µM)	0.12 (≈ 0.132 µM)	< 0.03	8 (≈ 8.81 µM)
CC[C@H]1OC(=O)[C@H](C)[C@@H](O[C@H]2C[C@@](C)(OC)[C@@H](OC(=O)NCc3ccc(F)cc3)[C@H](C)O2)[C@H](C)[C@@H](O[C@@H]2O[C@H](C)C[C@H](N(C)C)[C@H]2O)[C@@](C)(O)C[C@@H](C)CN(C)[C@H](C)[C@@H](O)[C@]1(C)O	4 (≈ 4.44 µM)	0.25 (≈ 0.278 µM)	< 0.03	16 (≈ 17.8 µM)
CC[C@H]1OC(=O)[C@H](C)[C@@H](O[C@H]2C[C@@](C)(OC)[C@@H](OC(=O)NCCc3ccccc3Cl)[C@H](C)O2)[C@H](C)[C@@H](O[C@@H]2O[C@H](C)C[C@H](N(C)C)[C@H]2O)[C@@](C)(O)C[C@@H](C)CN(C)[C@H](C)[C@H]2OC(=O)O[C@@]21C	8 (≈ 8.36 µM)	0.25 (≈ 0.261 µM)	0.06 (≈ 0.0627 µM)	2 (≈ 2.09 µM)
CC[C@H]1OC(=O)[C@H](C)[C@@H](O[C@H]2C[C@@](C)(OC)[C@@H](O)[C@H](C)O2)[C@H](C)[C@@H](O[C@@H]2O[C@H](C)C[C@H](N(C)C)[C@H]2O)[C@](C)(OC)C[C@@H](C)C(=O)[C@H](C)[C@@H](O)[C@]1(C)O [CLARITHROMYCIN]	64 (≈ 85.6 µM)	4 (≈ 5.35 µM)	< 0.03	128 (≈ 171 µM)
CCCCCNC(=O)O[C@H]1[C@H](C)O[C@@H](O[C@H]2[C@H](C)[C@@H](O[C@@H]3O[C@H](C)C[C@H](N(C)C)[C@H]3O)[C@@](C)(O)C[C@@H](C)CN(C)[C@H](C)[C@@H](O)[C@](C)(O)[C@@H](CC)OC(=O)[C@@H]2C)C[C@@]1(C)OC	8 (≈ 9.28 µM)	0.5 (≈ 0.58 µM)	< 0.03	32 (≈ 37.1 µM)
CC[C@H]1OC(=O)[C@H](C)[C@@H](O[C@H]2C[C@@](C)(OC)[C@@H](OC(=O)NCc3ccccc3)[C@H](C)O2)[C@H](C)[C@@H](O[C@@H]2O[C@H](C)C[C@H](N(C)C)[C@H]2O)[C@@](C)(O)C[C@@H](C)CN(C)[C@H](C)[C@@H](O)[C@]1(C)O	16 (≈ 18.1 µM)	0.06 (≈ 0.068 µM)	< 0.03	64 (≈ 72.6 µM)
CC[C@H]1OC(=O)[C@H](C)[C@@H](O[C@H]2C[C@@](C)(OC)[C@@H](OC(=O)NCCc3ccc4c(c3)OCO4)[C@H](C)O2)[C@H](C)[C@@H](O[C@@H]2O[C@H](C)C[C@H](N(C)C)[C@H]2O)[C@@](C)(O)C[C@@H](C)CN(C)C(C)[C@H]2OC(=O)O[C@@]21C (stereo partly specified)	4 (≈ 4.14 µM)	0.06 (≈ 0.0621 µM)	< 0.03	2 (≈ 2.07 µM)
CC[C@H]1OC(=O)[C@H](C)[C@@H](O[C@H]2C[C@@](C)(OC)[C@@H](OC(=O)NC3CCCCC3)[C@H](C)O2)[C@H](C)[C@@H](O[C@@H]2O[C@H](C)C[C@H](N(C)C)[C@H]2O)[C@@](C)(O)C[C@@H](C)CN(C)[C@H](C)[C@H]2OC(=O)O[C@@]21C	16 (≈ 17.8 µM)	2 (≈ 2.22 µM)	0.06 (≈ 0.0667 µM)	32 (≈ 35.5 µM)
CC[C@H]1OC(=O)[C@H](C)[C@@H](O[C@H]2C[C@@](C)(OC)[C@@H](OC(=O)NCCc3ccccc3)[C@H](C)O2)[C@H](C)[C@@H](O[C@@H]2O[C@H](C)C[C@H](N(C)C)[C@H]2O)[C@@](C)(O)C[C@@H](C)CN(C)[C@H](C)[C@@H](O)[C@]1(C)O	8 (≈ 8.93 µM)	1 (≈ 1.12 µM)	0.06 (≈ 0.067 µM)	32 (≈ 35.7 µM)
CC[C@H]1OC(=O)[C@H](C)[C@@H](O[C@H]2C[C@@](C)(OC)[C@@H](OC(=O)NCc3ccc(F)cc3)[C@H](C)O2)[C@H](C)[C@@H](O[C@@H]2O[C@H](C)C[C@H](N(C)C)[C@H]2O)[C@@](C)(O)C[C@@H](C)CN(C)[C@H](C)[C@@H](OC(=O)NCCc2ccccc2)[C@]1(C)O	0.25 (≈ 0.239 µM)	0.06 (≈ 0.0573 µM)	< 0.03	32 (≈ 30.6 µM)
CC[C@H]1OC(=O)[C@H](C)[C@@H](O[C@H]2C[C@@](C)(OC)[C@@H](OC(=O)NCc3ccc(F)cc3)[C@H](C)O2)[C@H](C)[C@@H](O[C@@H]2O[C@H](C)C[C@H](N(C)C)[C@H]2O)[C@@](C)(O)C[C@@H](C)CN(C)[C@H](C)[C@@H](OC(=O)NCCc2ccccc2Cl)[C@]1(C)O	0.25 (≈ 0.231 µM)	0.12 (≈ 0.111 µM)	< 0.03	2 (≈ 1.85 µM)
CCCCNC(=O)O[C@@H]1[C@@H](C)N(C)C[C@H](C)C[C@](C)(O)[C@H](O[C@@H]2O[C@H](C)C[C@H](N(C)C)[C@H]2O)[C@@H](C)[C@H](O[C@H]2C[C@@](C)(OC)[C@@H](OC(=O)NCCc3ccc(O)cc3)[C@H](C)O2)[C@@H](C)C(=O)O[C@H](CC)[C@@]1(C)O	0.25 (≈ 0.247 µM)	1 (≈ 0.989 µM)	< 0.03	128 (≈ 127 µM)
CC[C@H]1OC(=O)[C@H](C)[C@@H](O[C@H]2C[C@@](C)(OC)[C@@H](OC(=O)NCCc3ccc(O)cc3)[C@H](C)O2)[C@H](C)[C@@H](O[C@@H]2O[C@H](C)C[C@H](N(C)C)[C@H]2O)[C@@](C)(O)C[C@@H](C)CN(C)[C@H](C)[C@H]2OC(=O)O[C@@]21C	8 (≈ 8.53 µM)	1 (≈ 1.07 µM)	< 0.03	4 (≈ 4.26 µM)
CC[C@H]1OC(=O)[C@H](C)[C@@H](O[C@H]2C[C@@](C)(OC)[C@@H](OC(=O)NCc3ccc(F)cc3)[C@H](C)O2)[C@H](C)[C@@H](O[C@@H]2O[C@H](C)C[C@H](N(C)C)[C@H]2O)[C@@](C)(O)C[C@@H](C)CN(C)[C@H](C)[C@H]2OC(=O)O[C@@]21C	8 (≈ 8.64 µM)	0.06 (≈ 0.0648 µM)	0.06 (≈ 0.0648 µM)	4 (≈ 4.32 µM)
CC[C@H]1OC(=O)[C@H](C)[C@@H](O[C@H]2C[C@@](C)(OC)[C@@H](OC(=O)NCCc3ccccc3Cl)[C@H](C)O2)[C@H](C)[C@@H](O[C@@H]2O[C@H](C)C[C@H](N(C)C)[C@H]2O)[C@@](C)(O)C[C@@H](C)CN(C)[C@H](C)[C@@H](OC(=O)NCc2ccccc2)[C@]1(C)O	0.25 (≈ 0.235 µM)	0.25 (≈ 0.235 µM)	< 0.03	4 (≈ 3.76 µM)
CC[C@H]1OC(=O)[C@H](C)[C@@H](O[C@H]2C[C@@](C)(OC)[C@@H](OC(=O)NC(C)C)[C@H](C)O2)[C@H](C)[C@@H](O[C@@H]2O[C@H](C)C[C@H](N(C)C)[C@H]2O)[C@@](C)(O)C[C@@H](C)CN(C)[C@H](C)[C@H]2OC(=O)O[C@@]21C	16 (≈ 18.6 µM)	8 (≈ 9.3 µM)	0.12 (≈ 0.14 µM)	128 (≈ 149 µM)
